Columns and labels:
PDE5A1 = target: T1, PDE5A1 (Homo sapiens, UniProt O76074); experiment: Inhibition of PDE5A1 activity, modified SPA (scintillation proximity assay) with recombinant enzyme; assay type: biochemical; settings: for IC50: recombinant PDE5A1, 0.5 μM cGMP substrate, read-out: Inhibition of the PDE5 activity (IC50)
T1 construct: made in house; host or cells: SF21 insect cells (baculovirus; virus made in SF9)
From the text: The PDE5A1 (GB no. AF043731) was cloned via PCR from Kidney cDNA. A 5′ fragment was amplified with OZ489 (5′-[…] -3′) and OZ 493 (5′-[…]-3′), a 3′ fragment was amplified with OZ 492 (5′-[…]-3′) and OZ 490 (5′-[…]-3′). Both fragments were cloned into pCR2.1-Topo. Primers OZ 493 and OZ 492 have a nucleotide substitution that doesn't affect the translated sequence, but introduces an EcoRI cutting site. The 2 fragments were cut out of the cloning vector with EcoRI and subcloned together in a single ligation reaction into pBP9, resulting in the construct PZ 287. […] For correct expression it was subcloned with Xmal/Sacl into pBacPak8.
The recombinant baculovirus was prepared by means of homologous recombination in SF9 insect cells. The expression plasmid was cotransfected with Bac-N-Blue (Invitrogen, Groningen, NL) or Baculo-Gold DNA (Pharmingen, Hamburg) using a standard protocol (Pharmingen, Hamburg). Wt virus-free recombinant virus supernatant was selected using plaque assay methods. After that, high-titre virus supernatant was prepared by amplifying 3 times. PDE was expressed in SF21 cells by infecting 2×10^6 cells/ml with an MOI (multiplicity of infection) between 1 and 10 in serum-free SF900 medium (Life Technologies, Paisley, UK). The cells were cultured at 28° C. for 48-72 hours, after which they were pelleted for 5-10 min at 1000 g and 4° C.
The SF21 insect cells were resuspended, at a concentration of approx. 10^7 cells/ml, in ice-cold (4° C.) homogenization buffer (20 mM Tris, pH 8.2, containing the following additions: 140 mM NaCl, 3.8 mM KCl, 1 mM EGTA, 1 mM MgCl2, 10 mM β-mercaptoethanol, 2 mM benzamidine, 0.4 mM Pefablock, 10 μM leupeptin, 10 μM pepstatin A, 5 μM trypsin inhibitor) and disrupted by ultrasonication. The homogenate was then centrifuged for 10 min at 1000× g and the supernatant was stored at −80° C. until subsequent use (see below). The protein content was determined by the Bradford method (BioRad, Munich) using BSA as the standard.
The test volume is 100 μl and contains 20 mM Tris buffer (pH 7.4), 0.1 mg of BSA (bovine serum albumin)/ml, 5 mM Mg^2+, 0.5 μM cGMP (including about 50,000 cpm of [3H]cGMP as a tracer), 1 μl of the respective substance dilution in DMSO and sufficient recombinant PDE (1000× g supernatant, see above) to ensure that 10-20% of the cGMP is converted under the said experimental conditions. […] After a preincubation of 5 min at 37° C., the reaction is started by adding the substrate (cGMP) and the assay is incubated for a further 15 min; after that, it is stopped by adding SPA beads (50 μl). In accordance with the manufacturer's instructions, the SPA beads had previously been resuspended in water, but were then diluted 1:3 (v/v) in water; the diluted solution also contains 3 mM IBMX to ensure a complete PDE activity stop. After the beads have been sedimented (>30 min), the MTP's are analyzed in commercially available luminescence detection devices. The corresponding IC50 values of the compounds for the inhibition of PDE activity are determined from the concentration-effect curves by means of non-linear regression.

[1] = test system: isolated guinea pig Langendorff hearts; experiment: Perfused guinea-pig Langendorff heart (bolus injection into the perfusion flow)
From the text: (Modification: Bolus Injection into the Perfusion Flow)
Guinea-pigs (male, Dunkin Hartley, 400-500 g; Charles River, Sulzfeld, Germany) kept in Macrolon® cages (type IV) with free access to food (maintenance diet no. 3418, Provimi-Kliba, CH-4303 Kaiseraugst) and tap water, were killed by cervical dislocation and the thoracic cavity was opened. The heart was rapidly excised and perfused with Krebs-Henseleit solution at a constant pressure of 80 cm H2O ([…]) via retrograde cannulation of the aorta in a Langendorff apparatus. The Krebs-Henseleit solution was composed as follows (mM: NaCl 118, KCl 4.7, CaCl2 1.9, MgSO4 1.2, KH2PO4 1.2, NaHCO3 25.0, and glucose 5.0, at 37° C., gassed with 95% O2/5% CO2, v/v). Through an incision in the left atrium, a water-filled balloon catheter connected to a Statham P 23 Db pressure transducer was introduced into the left ventricle and preloaded to a pressure of […], mimicking the diastolic pressure.
Precoronary perfusate flow (CF, at an initial average passive flow of 11-13 ml/min) was measured using an electromagnetic flow meter. The change in left ventricular isovolumetric pressure amplitude (LVP) calculated by subtracting the diastolic from the systolic pressure, the rate of maximal left ventricular pressure rise (dP/dtmax), and the rate of the spontaneously beating heart (HR) were continuously recorded and monitored by a data acquisition system (Notocord, hem version 3.3; F-78290 Croissy).
Following at least 1 h of perfusion and stabilization of all cardiac parameters, the test drug is injected as 100 μl bolus within 2 s directly into the perfusion tube connected to the aortic inflow and increased threefold after the previous dose has produced its coronary dilatory response and the perfusion flow has returned to pre-drug values again. Thee drug-induced change in cardiac parameters is expressed as percentage of the initial pre-drug values.

SMILES | PDE5 inhibition in vitro (result in words) (PDE5A1) | IC50 (PDE5A1) [µM] | heart rate [1] | left ventricular pressure [1] | coronary heart flow [1]
CC(=O)Oc1ccccc1C(=O)O [Aspirin, acetylsalicylic acid] | show no effects | > 100 | – | – | –
Cc1ccc(-c2cc(C(F)(F)F)nn2-c2ccc(S(N)(=O)=O)cc2)cc1 [Celecoxib] | – | – | no effect | no effect | –
CS(=O)(=O)Nc1cc2c(cc1Sc1ccc(F)cc1F)C(=O)CC2 [L-745337] | possess PDE5 activity in the μM range | – | – | – | –
Cc1ccc(Nc2c(F)cccc2Cl)c(CC(=O)O)c1 [Lumiracoxib] | show no effects | > 100 | – | – | substantially lack the ability to increase coronary heart flow
CS(=O)(=O)Nc1cc2c(cc1Oc1ccc(F)cc1F)C(=O)CC2 [flosulide] | possess PDE5 activity in the μM range | – | – | – | –

Further lines, with some results ahead:

PDE5 inhibition in vitro (result in words) (PDE5A1) | IC50 (PDE5A1) [µM] | SMILES | heart rate [1] | left ventricular pressure [1] | coronary heart flow [1]
show no effects | > 100 | O=C(O)Cc1ccccc1Nc1c(Cl)cccc1Cl [Diclofenac] | – | – | substantially lack the ability to increase coronary heart flow
show no effects | > 100 | Cc1ccc(-c2ncc(Cl)cc2-c2ccc(S(C)(=O)=O)cc2)cn1 [Etorecoxib] | – | – | substantially lack the ability to increase coronary heart flow
show no effects | > 100 | CCC(=O)NS(=O)(=O)c1ccc(-c2c(-c3ccccc3)noc2C)cc1 [Parecoxib] | – | – | substantially lack the ability to increase coronary heart flow
show no effects | > 100 | CS(=O)(=O)c1ccc(C2=C(c3ccccc3)C(=O)OC2)cc1 [Rofecoxib] | – | – | substantially lack the ability to increase coronary heart flow
show no effects | > 100 | Cc1onc(-c2ccccc2)c1-c1ccc(S(N)(=O)=O)cc1 [Valdecoxib] | – | – | substantially lack the ability to increase coronary heart flow
possess PDE5 activity in the μM range | – | CS(=O)(=O)Nc1ccc([N+](=O)[O-])cc1Oc1ccccc1 [nimesulide] | – | – | –
